Source: PMC10528299, “Targeting FAK/PYK2 with SJP1602 for Anti-Tumor Activity in Triple-Negative Breast Cancer” (Current Issues in Molecular Biology, 2023)

What was measured:
Experiment in all cases: Eurofins kinase profiling
Format in all cases: biochemical
DYRK2(h) = biological target: T1, DYRK2(h) (Homo sapiens, UniProt Q92630); conditions: read-out: residual kinase activity DYRK2(h)
T1 construct: purchased Eurofins KinaseProfiler
T1 sequence (Q92630 1-601): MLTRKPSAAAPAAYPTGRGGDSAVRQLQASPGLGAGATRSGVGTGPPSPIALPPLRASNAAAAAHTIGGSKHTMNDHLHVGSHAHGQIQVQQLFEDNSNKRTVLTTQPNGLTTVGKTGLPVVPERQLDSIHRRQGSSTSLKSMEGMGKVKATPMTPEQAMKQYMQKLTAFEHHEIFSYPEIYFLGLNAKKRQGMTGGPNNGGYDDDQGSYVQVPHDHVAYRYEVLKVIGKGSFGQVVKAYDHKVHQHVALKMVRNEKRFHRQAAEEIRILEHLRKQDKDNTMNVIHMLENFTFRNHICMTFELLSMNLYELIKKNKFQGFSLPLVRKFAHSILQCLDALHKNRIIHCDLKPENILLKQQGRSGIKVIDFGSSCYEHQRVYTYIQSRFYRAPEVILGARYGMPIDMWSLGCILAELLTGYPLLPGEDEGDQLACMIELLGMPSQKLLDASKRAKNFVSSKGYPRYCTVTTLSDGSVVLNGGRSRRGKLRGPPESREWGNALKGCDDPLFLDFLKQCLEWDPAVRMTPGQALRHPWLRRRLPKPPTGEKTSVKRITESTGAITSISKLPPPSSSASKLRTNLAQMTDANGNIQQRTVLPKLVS
Outline: (§1)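 Protein kinases were run in the KinaseProfiler radiometric format with the test compound at 1 µM, and activity was measured by incorporation of radiolabeled phosphate. The assays followed the provider's standard protocols as part of a 110-kinase panel.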

Pim-1(h) = biological target: T2, Pim-1(h) (Homo sapiens, UniProt P11309); conditions: read-out: residual kinase activity Pim-1(h)
T2 construct: purchased Eurofins KinaseProfiler
Outline: as §1

Flt3(D835Y)(h) = biological target: T3, Flt3(D835Y)(h) (Homo sapiens, UniProt P36888, D835Y); conditions: read-out: residual kinase activity Flt3(D835Y)(h)
T3 construct: purchased Eurofins KinaseProfiler
T3 sequence (P36888 27-993 D835Y): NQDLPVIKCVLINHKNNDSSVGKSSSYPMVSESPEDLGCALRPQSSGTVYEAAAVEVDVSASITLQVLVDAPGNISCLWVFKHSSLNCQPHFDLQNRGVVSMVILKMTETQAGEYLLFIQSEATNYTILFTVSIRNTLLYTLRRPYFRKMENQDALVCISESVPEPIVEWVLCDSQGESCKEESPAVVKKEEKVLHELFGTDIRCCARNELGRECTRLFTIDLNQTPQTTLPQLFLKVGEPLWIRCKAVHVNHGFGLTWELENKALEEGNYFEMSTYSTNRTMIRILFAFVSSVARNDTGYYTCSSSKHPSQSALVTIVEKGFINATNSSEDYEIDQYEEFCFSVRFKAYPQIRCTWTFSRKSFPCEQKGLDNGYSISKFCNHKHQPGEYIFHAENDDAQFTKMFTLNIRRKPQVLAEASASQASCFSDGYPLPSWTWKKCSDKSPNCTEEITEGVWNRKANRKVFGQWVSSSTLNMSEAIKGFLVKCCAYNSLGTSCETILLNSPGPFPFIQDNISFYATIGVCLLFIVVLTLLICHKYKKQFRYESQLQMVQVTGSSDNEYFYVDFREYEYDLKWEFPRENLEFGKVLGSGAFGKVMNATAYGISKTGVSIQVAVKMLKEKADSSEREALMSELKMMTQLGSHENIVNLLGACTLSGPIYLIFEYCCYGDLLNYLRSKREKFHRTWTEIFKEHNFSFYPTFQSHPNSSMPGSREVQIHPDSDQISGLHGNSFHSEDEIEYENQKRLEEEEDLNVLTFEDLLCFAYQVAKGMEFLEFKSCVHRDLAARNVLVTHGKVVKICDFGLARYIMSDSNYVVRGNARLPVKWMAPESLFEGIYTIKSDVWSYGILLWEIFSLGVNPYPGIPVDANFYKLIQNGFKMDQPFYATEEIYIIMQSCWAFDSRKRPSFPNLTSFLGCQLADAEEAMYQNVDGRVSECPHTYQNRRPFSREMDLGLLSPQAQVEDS
Outline: as §1

[1] = biological target: T4, PI3 Kinase (p110a(E545K)/p85a)(h) (Homo sapiens, UniProt P42336, E545K); conditions: read-out: residual kinase activity PI3 Kinase (p110a(E545K)/p85a)(h)
T4 construct: purchased Eurofins KinaseProfiler
Outline: as §1

CDK2/cyclinA(h) = biological target: T5, CDK2/cyclinA(h) (Homo sapiens, UniProt P24941); conditions: read-out: residual kinase activity CDK2/cyclinA(h)
T5 construct: purchased Eurofins KinaseProfiler
Outline: as §1

CHK2(h) = biological target: T6, CHK2(h) (Homo sapiens, UniProt O96017); conditions: read-out: residual kinase activity CHK2(h)
T6 construct: purchased Eurofins KinaseProfiler
Outline: as §1

PKCι(h) = biological target: T7, PKCι(h) (Homo sapiens, UniProt P41743); conditions: read-out: residual kinase activity PKCι(h)
T7 construct: purchased Eurofins KinaseProfiler
T7 sequence (P41743 1-596): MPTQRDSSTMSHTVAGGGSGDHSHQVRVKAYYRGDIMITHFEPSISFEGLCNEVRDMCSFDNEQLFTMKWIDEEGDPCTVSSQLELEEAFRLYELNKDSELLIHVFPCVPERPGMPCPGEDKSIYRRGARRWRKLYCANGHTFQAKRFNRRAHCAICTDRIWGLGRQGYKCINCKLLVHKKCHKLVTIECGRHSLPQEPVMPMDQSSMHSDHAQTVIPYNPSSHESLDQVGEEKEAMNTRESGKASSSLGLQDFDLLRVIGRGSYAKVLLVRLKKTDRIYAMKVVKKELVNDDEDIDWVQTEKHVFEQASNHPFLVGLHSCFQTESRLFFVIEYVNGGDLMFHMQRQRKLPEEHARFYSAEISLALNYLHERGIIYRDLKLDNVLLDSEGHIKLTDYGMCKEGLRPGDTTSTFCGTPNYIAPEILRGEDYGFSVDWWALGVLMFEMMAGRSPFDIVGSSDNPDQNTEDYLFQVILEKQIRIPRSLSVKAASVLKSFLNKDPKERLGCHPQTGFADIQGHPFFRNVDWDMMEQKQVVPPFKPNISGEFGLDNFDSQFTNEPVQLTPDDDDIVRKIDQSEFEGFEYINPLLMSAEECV
Outline: as §1

ATR/ATRIP(h) = biological target: T8, ATR/ATRIP(h) (Homo sapiens, UniProt Q13535); conditions: read-out: residual kinase activity ATR/ATRIP(h)
T8 construct: purchased Eurofins KinaseProfiler
Outline: as §1

T6 sequence (O96017 whole entry): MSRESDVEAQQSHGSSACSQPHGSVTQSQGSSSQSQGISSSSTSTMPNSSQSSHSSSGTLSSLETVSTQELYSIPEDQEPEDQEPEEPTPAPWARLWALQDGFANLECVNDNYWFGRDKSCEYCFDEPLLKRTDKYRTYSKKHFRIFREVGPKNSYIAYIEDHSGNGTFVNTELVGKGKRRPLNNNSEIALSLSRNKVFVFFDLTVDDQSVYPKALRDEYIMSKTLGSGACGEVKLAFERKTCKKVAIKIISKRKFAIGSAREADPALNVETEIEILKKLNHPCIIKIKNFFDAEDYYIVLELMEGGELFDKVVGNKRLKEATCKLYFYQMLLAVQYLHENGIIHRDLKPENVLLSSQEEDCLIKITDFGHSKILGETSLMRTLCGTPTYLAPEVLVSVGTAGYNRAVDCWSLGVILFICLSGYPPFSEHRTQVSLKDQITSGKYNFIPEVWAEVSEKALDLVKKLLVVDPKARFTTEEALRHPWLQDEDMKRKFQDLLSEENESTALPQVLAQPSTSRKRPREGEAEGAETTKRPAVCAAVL
T4 sequence (P42336 whole entry E545K): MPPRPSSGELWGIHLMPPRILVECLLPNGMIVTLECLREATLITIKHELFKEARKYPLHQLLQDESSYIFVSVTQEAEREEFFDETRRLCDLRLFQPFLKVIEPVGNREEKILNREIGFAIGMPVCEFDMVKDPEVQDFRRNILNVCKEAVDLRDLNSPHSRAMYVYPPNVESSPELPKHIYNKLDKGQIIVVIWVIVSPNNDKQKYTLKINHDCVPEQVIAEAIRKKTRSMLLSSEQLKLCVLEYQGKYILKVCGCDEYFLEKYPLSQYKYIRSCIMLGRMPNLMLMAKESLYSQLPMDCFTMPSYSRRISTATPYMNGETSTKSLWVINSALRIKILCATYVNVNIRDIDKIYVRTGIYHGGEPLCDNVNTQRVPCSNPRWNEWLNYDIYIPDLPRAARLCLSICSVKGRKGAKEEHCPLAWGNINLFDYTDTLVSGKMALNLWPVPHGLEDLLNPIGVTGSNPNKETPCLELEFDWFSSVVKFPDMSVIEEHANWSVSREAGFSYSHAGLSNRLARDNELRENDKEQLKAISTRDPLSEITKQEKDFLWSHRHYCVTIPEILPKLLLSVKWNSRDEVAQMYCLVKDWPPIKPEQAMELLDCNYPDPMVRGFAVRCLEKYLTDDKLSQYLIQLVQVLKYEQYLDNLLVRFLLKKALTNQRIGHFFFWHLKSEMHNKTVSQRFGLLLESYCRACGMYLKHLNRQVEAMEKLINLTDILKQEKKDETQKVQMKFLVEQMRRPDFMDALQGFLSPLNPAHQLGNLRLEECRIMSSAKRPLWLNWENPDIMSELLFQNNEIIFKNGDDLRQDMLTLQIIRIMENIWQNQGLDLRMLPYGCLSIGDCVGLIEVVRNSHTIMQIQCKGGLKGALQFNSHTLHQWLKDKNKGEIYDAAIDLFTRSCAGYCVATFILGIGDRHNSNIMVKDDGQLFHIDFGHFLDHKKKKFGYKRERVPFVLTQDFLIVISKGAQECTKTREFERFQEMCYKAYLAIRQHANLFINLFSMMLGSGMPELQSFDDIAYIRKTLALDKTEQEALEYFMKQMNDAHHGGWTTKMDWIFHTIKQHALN
T4 sequence (P27986 whole entry partner): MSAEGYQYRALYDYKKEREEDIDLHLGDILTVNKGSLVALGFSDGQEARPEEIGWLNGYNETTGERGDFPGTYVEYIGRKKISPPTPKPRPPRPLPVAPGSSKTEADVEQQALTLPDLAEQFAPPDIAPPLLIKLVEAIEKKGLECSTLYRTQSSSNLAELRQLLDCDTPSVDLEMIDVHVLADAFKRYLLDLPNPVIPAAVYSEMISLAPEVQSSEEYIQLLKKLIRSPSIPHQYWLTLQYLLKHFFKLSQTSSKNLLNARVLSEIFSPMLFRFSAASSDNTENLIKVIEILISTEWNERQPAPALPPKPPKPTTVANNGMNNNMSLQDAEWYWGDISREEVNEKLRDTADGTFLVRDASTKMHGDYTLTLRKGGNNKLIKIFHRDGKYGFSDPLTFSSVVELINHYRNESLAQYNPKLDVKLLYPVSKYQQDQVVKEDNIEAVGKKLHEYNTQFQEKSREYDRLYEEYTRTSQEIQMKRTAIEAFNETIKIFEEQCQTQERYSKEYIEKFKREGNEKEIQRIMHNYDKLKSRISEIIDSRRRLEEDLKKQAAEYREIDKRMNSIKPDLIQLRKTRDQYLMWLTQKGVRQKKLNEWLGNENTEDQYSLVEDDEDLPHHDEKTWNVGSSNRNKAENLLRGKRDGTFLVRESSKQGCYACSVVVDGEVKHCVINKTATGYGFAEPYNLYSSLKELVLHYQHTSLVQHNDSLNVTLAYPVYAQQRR
T2 sequence (P11309 whole entry): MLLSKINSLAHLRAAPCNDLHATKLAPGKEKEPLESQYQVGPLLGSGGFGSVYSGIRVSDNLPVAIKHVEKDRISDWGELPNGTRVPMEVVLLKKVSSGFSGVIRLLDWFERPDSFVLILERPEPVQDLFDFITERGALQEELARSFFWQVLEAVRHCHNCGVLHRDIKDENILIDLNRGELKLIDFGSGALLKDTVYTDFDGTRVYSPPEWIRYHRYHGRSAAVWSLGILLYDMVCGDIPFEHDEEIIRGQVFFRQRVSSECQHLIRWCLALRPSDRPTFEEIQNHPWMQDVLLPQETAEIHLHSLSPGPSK

remaining activity at 1 µM (DYRK2(h)) [%] | remaining activity at 1 µM (Pim-1(h)) [%] | remaining activity at 1 µM (Flt3(D835Y)(h)) [%] | remaining activity at 1 µM [1] [%] | remaining activity at 1 µM (CDK2/cyclinA(h)) [%] | remaining activity at 1 µM (CHK2(h)) [%] | remaining activity at 1 µM (PKCι(h)) [%] | remaining activity at 1 µM (ATR/ATRIP(h)) [%] | SMILES
52 | 87 | 76 | 93 | 94 | 59 | 106 | 101 | CONC(=O)c1ccccc1Nc1cc(Nc2cc(C)nn2C(C)C)ncc1Cl [GSK2256098]
80 | 86 | 7 | 100 | 28 | 71 | 100 | 92 | CNC(=O)c1ccc(Nc2ncc(C(F)(F)F)c(NCc3nccnc3N(C)S(C)(=O)=O)n2)cc1 [VS-6063, Defactinib]

SMILES | remaining activity at 1 µM (DYRK2(h)) [%] | remaining activity at 1 µM (Pim-1(h)) [%] | remaining activity at 1 µM (Flt3(D835Y)(h)) [%] | remaining activity at 1 µM [1] [%] | remaining activity at 1 µM (CDK2/cyclinA(h)) [%] | remaining activity at 1 µM (CHK2(h)) [%] | remaining activity at 1 µM (PKCι(h)) [%] | remaining activity at 1 µM (ATR/ATRIP(h)) [%]
CNC(=O)c1cccc(C)c1Nc1nc(Nc2ccc(N3CCN(C4C5CC6CC4CC(O)(C6)C5)CC3)cc2OC)ncc1C(F)(F)F (stereo not drawn) [SJP1602, 2-((2-((4-(4-((2s,5r)-5-hydroxyadamantan-2-yl)piperazin-1-yl)-2-methoxyphenyl)amino)-5-(trifluoromethyl)pyrimidin-4-yl)amino)-N,3-dimethylbenzamide] | 97 | 87 | 87 | 98 | 85 | 51 | 93 | 97
